ChEMBL document CHEMBL5550219, “Distinct Amino Acid-Based PROTACs Target Oncogenic Kinases for Degradation in Non-Small Cell Lung Cancer (NSCLC)” (J Med Chem, 2024)
The source made the active and inactive calls. No cut-off for these calls is given here.

What was measured:
[1] = Cmax in mouse at 50 mg/kg, ip measured for 12 hrs by HPLC analysis; type: ADME, organism-based; conditions: in vivo
NCI-H3122 [2] = assay: Inhibition of cell viability in human NCI-H3122 cells incubated for 48 to 72 hrs by CCK8 assay
NCI-H1975 [3] = assay: Induction of cell cycle arrest at G1 phase in human NCI-H1975 cells at 10 uM incubated for 72 hrs by flow cytometry (reference value: 44.5 +/- 1.5 %); type: functional
SH-SY5Y = assay: Effect on ALK F1174L mutant in human SH-SY5Y cells upto 20 uM incubated for 48 hrs by immunoblot analysis; type: functional, cell-based
NCI-H1975 [4] = assay: Induction of apoptosis in human NCI-H1975 cells assessed as increase in early apoptotic cells incubated for 72 hrs by Annexin V-FITC/PI staining based flow cytometry; type: functional, cell-based; conditions: dose 10-20 µM
NCI-H1975 [5] = assay: Induction of cell cycle arrest at G1 phase in human NCI-H1975 cells at 20 uM incubated for 72 hrs by flow cytometry (reference value: 44.5 +/- 1.5 %); type: functional
HEK-293T = assay: Inhibition of cell viability in HEK293T cells upto 20 uM incubated for 48 hrs by CCK8 assay; type: toxicity, cell-based; conditions: human
NCI-H1975 [6] = assay: Induction of cell cycle arrest at G2 phase in human NCI-H1975 cells at 10 uM incubated for 72 hrs by flow cytometry (reference value: 43.4 +/- 1.5 %); type: functional
SK-N-BE(2) = assay: Effect on wild-type ALK in human SK-N-BE(2) cells upto 20 uM incubated for 48 hrs by immunoblot analysis; type: functional, cell-based
NCI-H1975 [7] = assay: Induction of cell cycle arrest at S phase in human NCI-H1975 cells at 10 uM incubated for 72 hrs by flow cytometry (reference value: 12.1 +/- 0.7 %); type: functional
NCI-H1299 = assay: Effect on wild-type EGFR expression in human NCI-H1299 cells upto 20 uM incubated for 72 hrs by immunoblot analysis; type: functional, cell-based
NCI-H3122 [8] = assay: Induction of cell cycle arrest at G2 phase in human NCI-H3122 cells at 5 uM incubated for 48 hrs by flow cytometry (reference value: 9.4 +/- 0.5 %); type: functional
NCI-H3122 [9] = assay: Inhibition of cell viability in human NCI-H3122 cells harboring sgGID4 incubated for 48 hrs by CCK8 assay; type: functional, cell-based
A549 = assay: Effect on wild-type EGFR expression in human A549 cells upto 20 uM incubated for 72 hrs by immunoblot analysis; type: functional, cell-based
[10] = […] measured for 12 hrs by HPLC analysis; type: ADME, organism-based; conditions: in vivo
NCI-H1975 [11] = assay: Induction of cell cycle arrest at S phase in human NCI-H1975 cells at 20 uM incubated for 72 hrs by flow cytometry (reference value: 12.1 +/- 0.7 %); type: functional
NCI-H3122 [12] = assay: Induction of cell cycle arrest at G1 phase in human NCI-H3122 cells at 10 uM incubated for 48 hrs by flow cytometry (reference value: 64.9 +/- 0.6 %); type: functional
NCI-H1975 [13] = assay: Induction of cell cycle arrest at G2 phase in human NCI-H1975 cells at 20 uM incubated for 72 hrs by flow cytometry (reference value: 43.4 +/- 1.5 %); type: functional
NCI-H3122 [14] = assay: Induction of cell cycle arrest at S phase in human NCI-H3122 cells at 5 uM incubated for 48 hrs by flow cytometry (reference value: 25.7 +/- 0.4 %); type: functional
[15] = Cmax in mouse at 2 mg/kg, iv measured for 12 hrs by HPLC analysis; type: ADME, organism-based; conditions: in vivo
NCI-H3122 [16] = assay: Induction of cell cycle arrest at G2 phase in human NCI-H3122 cells at 10 uM incubated for 48 hrs by flow cytometry (reference value: 9.4 +/- 0.5 %); type: functional
[17] = Tmax in mouse at 2 mg/kg, iv measured for 12 hrs by HPLC analysis; type: ADME, organism-based; conditions: in vivo
NCI-H3122 [18] = assay: Induction of apoptosis in human NCI-H3122 cells assessed as increase in late apoptotic cells incubated for 48 hrs by Annexin V-FITC/PI staining based flow cytometry; type: functional, cell-based; conditions: dose 5-10 µM
NCI-H1975 [19] = assay: Inhibition of cell viability in human NCI-H1975 cells incubated for 48 to 72 hrs by CCK8 assay
PC-9 = assay: Effect on EGFR del19 mutant expression in human PC-9 cells upto 20 uM incubated for 72 hrs by immunoblot analysis; type: functional, cell-based
[20] = Tmax in mouse at 50 mg/kg, ip measured for 12 hrs by HPLC analysis; type: ADME, organism-based; conditions: in vivo
NCI-H3122 [21] = assay: Induction of apoptosis in human NCI-H3122 cells assessed as increase in early apoptotic cells incubated for 48 hrs by Annexin V-FITC/PI staining based flow cytometry; type: functional, cell-based; conditions: dose 5-10 µM
[22] = Half life in mouse at 2 mg/kg, iv measured for 12 hrs by HPLC analysis; type: ADME, organism-based; conditions: in vivo
NCI-H1975 [23] = assay: Induction of apoptosis in human NCI-H1975 cells assessed as increase in late apoptotic cells incubated for 72 hrs by Annexin V-FITC/PI staining based flow cytometry; type: functional, cell-based; conditions: dose 10-20 µM
NCI-H1975 [24] = assay: Inhibition of cell viability in human NCI-H1975 cells harboring sgGID4 incubated for 72 hrs by CCK8 assay; type: functional, cell-based
[25] = AUC (0 to t) in mouse at 2 mg/kg, iv measured for 12 hrs by HPLC analysis; type: ADME, organism-based; conditions: in vivo
NCI-H3122 [26] = assay: Induction of cell cycle arrest at G1 phase in human NCI-H3122 cells at 5 uM incubated for 48 hrs by flow cytometry (reference value: 64.9 +/- 0.6 %); type: functional
[27] = AUC (0 to t) in mouse at 50 mg/kg, ip measured for 12 hrs by HPLC analysis; type: ADME, organism-based; conditions: in vivo
NCI-H3122 [28] = assay: Induction of cell cycle arrest at S phase in human NCI-H3122 cells at 10 uM incubated for 48 hrs by flow cytometry (reference value: 25.7 +/- 0.4 %); type: functional
[29] = Half life in mouse at 50 mg/kg, ip measured for 12 hrs by HPLC analysis; type: ADME, organism-based; conditions: in vivo

COc1cc(N2CCN(C(=O)CCOCCOCCOCCNC(=O)[C@@H]3CCCN3)CC2)ccc1Nc1ncc(Cl)c(Nc2ccccc2P(C)(C)=O)n1
Cmax [1]: 33000 ng/mL
IC50 (NCI-H3122 [2]): 0.16 µM
Activity (NCI-H1975 [3]): 57.3%
Activity (SH-SY5Y): inactive
Activity (NCI-H1975 [4]): Dose-Dependent Effect
Activity (NCI-H1975 [5]): 78.4%
Activity (HEK-293T): Non-Toxic
Activity (NCI-H1975 [6]): 32.5%
Activity (SK-N-BE(2)): inactive
Activity (NCI-H1975 [7]): 10.2%
Activity (NCI-H1299): inactive
Activity (NCI-H3122 [8]): 8.1%
inhibition (NCI-H3122 [9]): inactive
Activity (A549): inactive
bioavailability [10]: 53.2%
Activity (NCI-H1975 [11]): 5.7%
Activity (NCI-H3122 [12]): 90.4%
Activity (NCI-H1975 [13]): 15.9%
Activity (NCI-H3122 [14]): 7.3%
Cmax [15]: 3720 ng/mL
Activity (NCI-H3122 [16]): 5.5%
Tmax [17]: 4.98 min
Activity (NCI-H3122 [18]): Dose-Dependent Effect
IC50 (NCI-H1975 [19]): 8.8 µM
Activity (PC-9): inactive
Tmax [20]: 0.5 h
Activity (NCI-H3122 [21]): Dose-Dependent Effect
half-life [22]: 2.87 h
Activity (NCI-H1975 [23]): Dose-Dependent Effect
inhibition (NCI-H1975 [24]): inactive
AUC(0-t) at 12 h [25]: 6080 ng·h/mL
Activity (NCI-H3122 [26]): 84.2%
AUC(0-t) at 12 h [27]: 80800 ng·h/mL
Activity (NCI-H3122 [28]): 3.9%
half-life [29]: 5.18 h
